# Assay results published in publication PMC7719162, “Positioning of an unprecedented spiro[5.5]undeca ring system into kinase inhibitor space” (Scientific Reports, 2020).
# Where two headings read alike, the source gives them in different places.
# How the values were obtained:
# TRKA-TPM3 = TRKA-TPM3 (Homo sapiens, UniProt P04629); test: Kinase panel assay (radiolabelled); assay type: biochemical; settings: 30 μM compound, ATP 10 μM, duplicates Data 1/Data 2
# AMPK(A2/B2/G3) [1] = molecular target: T1, AMPK(A2/B2/G3) (Homo sapiens, UniProt O43741+P54646+Q9UGI9); test: Kinase panel assay (radiolabelled); assay type: biochemical; settings: 30 μM compound, ATP 10 μM; duplicates Data 1/Data 2; read-out: % Enzyme Activity (relative to DMSO controls)
# T1 construct: purchased Reaction Biology Corp
# AMPK(A2/B2/G3) [2] = molecular target: T2, AMPK(A2/B2/G3) (Homo sapiens, UniProt P54646); test: Kinase panel assay (radiolabelled); assay type: biochemical; settings: 30 μM compound, ATP 10 μM; duplicates Data 1/Data 2
# T2 construct: purchased Reaction Biology Corp
# CDK1/cyclin B = molecular target: T3, CDK1/cyclin B (Homo sapiens, UniProt P06493); test: Kinase panel assay (radiolabelled); assay type: biochemical; settings: ATP 10 μM
# T3 construct: purchased Reaction Biology Corp
# T3 sequence (P06493 whole entry): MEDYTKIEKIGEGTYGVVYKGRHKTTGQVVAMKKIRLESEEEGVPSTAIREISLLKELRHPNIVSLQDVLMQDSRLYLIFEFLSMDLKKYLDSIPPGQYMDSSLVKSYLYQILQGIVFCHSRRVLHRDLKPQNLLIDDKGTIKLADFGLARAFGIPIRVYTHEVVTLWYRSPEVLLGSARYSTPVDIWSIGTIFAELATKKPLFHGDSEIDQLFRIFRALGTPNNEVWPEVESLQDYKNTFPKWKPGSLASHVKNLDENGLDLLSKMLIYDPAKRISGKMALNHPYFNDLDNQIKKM
# T3 sequence (P14635 whole entry partner): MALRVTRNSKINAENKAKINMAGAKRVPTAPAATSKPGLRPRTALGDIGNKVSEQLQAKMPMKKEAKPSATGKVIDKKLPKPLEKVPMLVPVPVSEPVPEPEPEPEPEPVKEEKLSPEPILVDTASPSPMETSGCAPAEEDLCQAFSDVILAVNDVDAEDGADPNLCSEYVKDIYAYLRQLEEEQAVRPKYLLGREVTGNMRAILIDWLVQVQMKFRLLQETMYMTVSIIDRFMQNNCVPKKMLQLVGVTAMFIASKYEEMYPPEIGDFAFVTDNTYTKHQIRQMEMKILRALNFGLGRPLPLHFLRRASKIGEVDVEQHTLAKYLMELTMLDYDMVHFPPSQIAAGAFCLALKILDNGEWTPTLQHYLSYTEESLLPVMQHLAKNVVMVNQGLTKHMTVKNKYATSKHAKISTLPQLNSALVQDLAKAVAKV
# ROCK1 = molecular target: T4, ROCK1 (Homo sapiens, UniProt Q13464); test: Kinase panel assay (radiolabelled); assay type: biochemical; settings: ATP 10 μM
# T4 construct: purchased Reaction Biology Corp
# T4 sequence (Q13464 whole entry): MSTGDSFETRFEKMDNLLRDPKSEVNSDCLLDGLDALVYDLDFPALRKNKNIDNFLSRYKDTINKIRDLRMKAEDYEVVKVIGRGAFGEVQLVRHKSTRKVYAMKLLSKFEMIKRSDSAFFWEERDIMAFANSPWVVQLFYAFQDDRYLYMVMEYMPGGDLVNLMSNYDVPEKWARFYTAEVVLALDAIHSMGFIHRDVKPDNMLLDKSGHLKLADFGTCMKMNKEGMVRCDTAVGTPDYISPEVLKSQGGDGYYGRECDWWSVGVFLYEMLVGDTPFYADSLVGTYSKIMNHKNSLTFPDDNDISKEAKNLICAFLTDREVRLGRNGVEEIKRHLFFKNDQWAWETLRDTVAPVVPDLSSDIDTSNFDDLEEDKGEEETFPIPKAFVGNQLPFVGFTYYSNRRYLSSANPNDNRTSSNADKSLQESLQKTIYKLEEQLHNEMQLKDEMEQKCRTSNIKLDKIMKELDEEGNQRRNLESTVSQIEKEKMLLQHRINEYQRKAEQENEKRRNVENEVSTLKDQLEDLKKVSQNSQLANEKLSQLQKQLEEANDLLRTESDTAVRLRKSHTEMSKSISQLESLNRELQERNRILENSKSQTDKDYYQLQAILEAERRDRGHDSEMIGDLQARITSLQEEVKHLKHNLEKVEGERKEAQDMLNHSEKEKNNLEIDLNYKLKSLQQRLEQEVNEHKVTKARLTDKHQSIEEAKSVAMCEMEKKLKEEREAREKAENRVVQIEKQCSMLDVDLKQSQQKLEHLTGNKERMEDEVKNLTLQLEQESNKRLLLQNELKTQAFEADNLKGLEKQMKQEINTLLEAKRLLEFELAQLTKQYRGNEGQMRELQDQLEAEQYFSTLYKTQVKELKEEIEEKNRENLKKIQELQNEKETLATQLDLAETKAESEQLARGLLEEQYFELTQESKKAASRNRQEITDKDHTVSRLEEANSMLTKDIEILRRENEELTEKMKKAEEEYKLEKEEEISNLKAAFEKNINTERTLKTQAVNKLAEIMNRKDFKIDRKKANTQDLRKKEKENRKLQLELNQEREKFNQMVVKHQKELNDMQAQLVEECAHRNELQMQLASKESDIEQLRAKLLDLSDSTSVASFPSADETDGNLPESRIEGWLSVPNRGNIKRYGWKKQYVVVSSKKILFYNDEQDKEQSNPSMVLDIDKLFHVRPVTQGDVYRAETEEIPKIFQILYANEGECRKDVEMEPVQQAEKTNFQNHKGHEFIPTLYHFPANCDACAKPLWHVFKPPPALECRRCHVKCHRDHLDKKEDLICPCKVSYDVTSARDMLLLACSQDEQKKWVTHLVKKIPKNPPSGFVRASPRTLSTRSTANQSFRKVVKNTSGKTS
# DNA-PK = molecular target: T5, DNA-PK (Homo sapiens, UniProt P78527); test: Kinase panel assay (radiolabelled); assay type: biochemical; settings: 30 μM compound, ATP 10 μM, duplicates Data 1/Data 2
# T5 construct: purchased Reaction Biology Corp
# AMPK(A1/B1/G1) [3] = molecular target: T6, AMPK(A1/B1/G1) (Homo sapiens, UniProt P54619+Q13131+Q9Y478); test: Kinase panel assay (radiolabelled); assay type: biochemical; settings: 30 μM compound, ATP 10 μM; duplicates Data 1/Data 2; read-out: % Enzyme Activity (relative to DMSO controls)
# T6 construct: purchased Reaction Biology Corp
# AMPK(A1/B1/G1) [4] = molecular target: T7, AMPK(A1/B1/G1) (Homo sapiens, UniProt Q13131); test: Kinase panel assay (radiolabelled); assay type: biochemical; settings: 30 μM compound, ATP 10 μM; duplicates Data 1/Data 2
# T7 construct: purchased Reaction Biology Corp
# TRKA = molecular target: T8, TRKA (Homo sapiens, UniProt P04629); test: Kinase panel assay (radiolabelled); assay type: biochemical; settings: ATP 10 μM
# T8 construct: purchased Reaction Biology Corp
# T8 sequence (P04629 33-796): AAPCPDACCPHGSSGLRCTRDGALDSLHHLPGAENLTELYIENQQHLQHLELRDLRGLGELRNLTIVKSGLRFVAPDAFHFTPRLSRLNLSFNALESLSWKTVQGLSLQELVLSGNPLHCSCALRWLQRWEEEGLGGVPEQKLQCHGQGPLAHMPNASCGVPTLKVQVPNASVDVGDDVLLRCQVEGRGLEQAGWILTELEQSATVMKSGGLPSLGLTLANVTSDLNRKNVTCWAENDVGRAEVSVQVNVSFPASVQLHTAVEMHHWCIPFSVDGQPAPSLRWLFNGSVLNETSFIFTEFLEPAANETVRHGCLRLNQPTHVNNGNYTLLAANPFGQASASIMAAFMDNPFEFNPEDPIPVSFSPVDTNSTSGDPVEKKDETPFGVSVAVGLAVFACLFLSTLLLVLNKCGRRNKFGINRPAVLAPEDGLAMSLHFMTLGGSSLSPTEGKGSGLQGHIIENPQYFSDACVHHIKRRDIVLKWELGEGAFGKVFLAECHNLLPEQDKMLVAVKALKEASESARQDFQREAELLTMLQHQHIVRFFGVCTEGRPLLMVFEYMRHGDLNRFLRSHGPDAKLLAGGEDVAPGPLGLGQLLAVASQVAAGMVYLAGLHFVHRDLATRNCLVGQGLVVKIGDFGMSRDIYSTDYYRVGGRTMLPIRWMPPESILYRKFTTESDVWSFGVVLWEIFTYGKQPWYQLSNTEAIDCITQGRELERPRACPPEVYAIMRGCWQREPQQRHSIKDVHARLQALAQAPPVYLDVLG
# PKN2/PRK2 = molecular target: T9, PKN2/PRK2 (Homo sapiens, UniProt Q16513); test: Kinase panel assay (radiolabelled); assay type: biochemical; settings: ATP 10 μM
# T9 construct: purchased Reaction Biology Corp
# T9 sequence (Q16513 whole entry): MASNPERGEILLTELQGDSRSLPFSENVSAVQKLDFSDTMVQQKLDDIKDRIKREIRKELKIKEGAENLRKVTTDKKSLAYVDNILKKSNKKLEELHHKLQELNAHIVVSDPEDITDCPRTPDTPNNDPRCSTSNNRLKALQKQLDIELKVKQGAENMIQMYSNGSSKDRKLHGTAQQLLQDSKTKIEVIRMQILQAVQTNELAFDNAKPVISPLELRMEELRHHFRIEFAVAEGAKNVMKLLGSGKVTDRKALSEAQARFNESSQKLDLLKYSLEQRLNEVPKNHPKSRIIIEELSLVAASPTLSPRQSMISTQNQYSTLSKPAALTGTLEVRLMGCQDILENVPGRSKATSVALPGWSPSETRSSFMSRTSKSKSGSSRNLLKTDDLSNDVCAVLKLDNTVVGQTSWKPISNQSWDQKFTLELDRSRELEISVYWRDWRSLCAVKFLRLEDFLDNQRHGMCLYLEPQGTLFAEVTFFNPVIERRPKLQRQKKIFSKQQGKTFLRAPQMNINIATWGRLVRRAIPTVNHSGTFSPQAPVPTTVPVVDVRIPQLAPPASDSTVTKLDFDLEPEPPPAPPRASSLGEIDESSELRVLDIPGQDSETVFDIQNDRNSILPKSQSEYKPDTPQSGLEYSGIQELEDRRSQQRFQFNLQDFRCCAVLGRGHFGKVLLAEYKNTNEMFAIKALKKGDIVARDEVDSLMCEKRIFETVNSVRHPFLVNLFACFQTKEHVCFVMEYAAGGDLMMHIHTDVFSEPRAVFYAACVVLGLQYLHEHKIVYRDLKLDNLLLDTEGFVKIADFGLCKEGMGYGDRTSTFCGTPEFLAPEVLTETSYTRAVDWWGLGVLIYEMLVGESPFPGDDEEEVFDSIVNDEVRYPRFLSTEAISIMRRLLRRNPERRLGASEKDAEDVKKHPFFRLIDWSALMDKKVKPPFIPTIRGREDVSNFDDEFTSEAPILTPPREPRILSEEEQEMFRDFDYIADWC
# TRKC (G623E) = molecular target: T10, TRKC (G623E) (Homo sapiens, UniProt Q16288, G623E); test: Kinase panel assay (radiolabelled); assay type: biochemical; settings: 30 μM compound, ATP 10 μM, duplicates Data 1/Data 2
# T10 construct: purchased Reaction Biology Corp
# T10 sequence (Q16288 32-839 G623E): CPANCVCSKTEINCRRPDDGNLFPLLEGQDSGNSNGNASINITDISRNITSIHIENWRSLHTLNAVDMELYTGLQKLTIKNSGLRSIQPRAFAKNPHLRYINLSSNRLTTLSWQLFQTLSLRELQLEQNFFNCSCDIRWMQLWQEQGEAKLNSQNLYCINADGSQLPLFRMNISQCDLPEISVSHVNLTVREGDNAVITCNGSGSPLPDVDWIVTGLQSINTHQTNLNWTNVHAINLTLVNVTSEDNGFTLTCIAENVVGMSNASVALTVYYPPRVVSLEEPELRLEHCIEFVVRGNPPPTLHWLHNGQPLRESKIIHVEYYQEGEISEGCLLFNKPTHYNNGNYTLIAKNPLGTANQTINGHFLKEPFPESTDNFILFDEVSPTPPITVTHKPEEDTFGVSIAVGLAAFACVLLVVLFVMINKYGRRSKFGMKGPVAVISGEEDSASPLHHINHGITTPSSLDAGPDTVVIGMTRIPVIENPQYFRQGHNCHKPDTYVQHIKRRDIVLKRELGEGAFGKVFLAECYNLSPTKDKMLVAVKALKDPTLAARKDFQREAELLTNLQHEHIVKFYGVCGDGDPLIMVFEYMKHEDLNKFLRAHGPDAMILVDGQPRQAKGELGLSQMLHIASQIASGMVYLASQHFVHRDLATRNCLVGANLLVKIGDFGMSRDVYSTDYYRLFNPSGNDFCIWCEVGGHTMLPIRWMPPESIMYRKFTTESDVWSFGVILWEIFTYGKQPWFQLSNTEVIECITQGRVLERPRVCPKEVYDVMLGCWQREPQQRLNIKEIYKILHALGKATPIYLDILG
# Haspin = molecular target: T11, Haspin (Homo sapiens, UniProt Q8TF76); test: Kinase panel assay (radiolabelled); assay type: biochemical; settings: ATP 10 μM
# T11 construct: purchased Reaction Biology Corp
# T11 sequence (Q8TF76 1-798): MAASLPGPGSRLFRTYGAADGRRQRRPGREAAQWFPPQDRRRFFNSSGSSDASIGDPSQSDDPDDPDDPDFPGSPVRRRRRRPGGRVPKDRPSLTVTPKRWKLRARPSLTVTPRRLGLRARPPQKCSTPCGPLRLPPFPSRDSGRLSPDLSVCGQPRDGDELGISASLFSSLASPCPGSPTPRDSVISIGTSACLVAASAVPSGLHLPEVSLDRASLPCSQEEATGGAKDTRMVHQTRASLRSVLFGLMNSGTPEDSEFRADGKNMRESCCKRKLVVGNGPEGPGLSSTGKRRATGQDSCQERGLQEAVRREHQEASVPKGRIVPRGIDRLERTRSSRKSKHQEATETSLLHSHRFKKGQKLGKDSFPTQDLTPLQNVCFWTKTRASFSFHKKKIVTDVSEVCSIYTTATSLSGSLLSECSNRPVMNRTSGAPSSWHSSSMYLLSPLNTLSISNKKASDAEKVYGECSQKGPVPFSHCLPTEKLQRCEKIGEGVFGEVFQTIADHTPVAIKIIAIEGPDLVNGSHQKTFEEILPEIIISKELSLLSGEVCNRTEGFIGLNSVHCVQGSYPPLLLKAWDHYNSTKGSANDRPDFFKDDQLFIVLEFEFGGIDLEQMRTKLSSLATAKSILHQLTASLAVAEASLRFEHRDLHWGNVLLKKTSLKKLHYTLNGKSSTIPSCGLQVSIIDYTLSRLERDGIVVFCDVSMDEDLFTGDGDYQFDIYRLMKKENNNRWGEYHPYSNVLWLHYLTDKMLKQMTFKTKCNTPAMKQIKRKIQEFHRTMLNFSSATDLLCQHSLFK
# TRKA (G667C) = molecular target: T12, TRKA (G667C) (Homo sapiens, UniProt P04629, G667C); test: Kinase panel assay (radiolabelled); assay type: biochemical; settings: 30 μM compound, ATP 10 μM, duplicates Data 1/Data 2
# T12 construct: purchased Reaction Biology Corp
# T12 sequence (P04629 33-796 G667C): as the sequence (P04629 33-796) above, with G635C counted along it
# mTOR/FRAP1 = molecular target: T13, mTOR/FRAP1 (Homo sapiens, UniProt P42345); test: Kinase panel assay (radiolabelled); assay type: biochemical; settings: 30 μM compound, ATP 10 μM, duplicates Data 1/Data 2
# T13 construct: purchased Reaction Biology Corp
# COX-2 = test: Western blot of COX-2 in LPS-induced BV-2 cells; assay type: cell-based, murine; settings: 0.01 to 1 uM
# Experimental: Western blot analysis was performed to see the protein expression of the iNOS and COX-2 in the BV2 cells. BV2 cells were seeded in a 6 well plate at the density of 6 × 10^5 cells/well overnight and cells were treated as mentioned earlier in the cell treatment section and this time treatment was performed for 6 h only. After 6 h, cells were harvested and lysed with lysis buffer containing (RIPA, protease inhibitor & phosphatase inhibitor), protein estimation was performed using biorad assay and the 30 µg of total protein was separated by 8% SDS-PAGE gel electrophoresis, transferred to nitrocellulose membranes, and incubated with primary antibodies against tubulin, iNOS, COX-2, and α-tubulin. […] membranes were incubated with horseradish peroxidase-conjugated secondary antibodies, and protein bands were visualized using ECL Western Blotting Detection Reagents (Amersham Pharmacia Biotech). Quantitative analysis of the protein bands was quantified using Image Master 2D Elite software (version 3.1, Amersham Pharmacia Biotech).
# TRKC (L686M) = molecular target: T14, TRKC (L686M) (Homo sapiens, UniProt Q16288, L686M); test: Kinase panel assay (radiolabelled); assay type: biochemical; settings: 30 μM compound, ATP 10 μM, duplicates Data 1/Data 2
# T14 construct: purchased Reaction Biology Corp
# T14 sequence (Q16288 32-839 L686M): as the sequence (Q16288 32-839 G623E) above, with E592G, L655M counted along it
# DAPK2 = molecular target: T15, DAPK2 (Homo sapiens, UniProt Q9UIK4); settings: cited from earlier work
# T15 construct: purchased Reaction Biology Corp
# JNK1 = molecular target: T16, JNK1 (Homo sapiens, UniProt P45983); settings: cited from earlier work
# T16 construct: purchased Reaction Biology Corp
# JNK2 = molecular target: T17, JNK2 (Homo sapiens, UniProt P45984); settings: cited from earlier work
# T17 construct: purchased Reaction Biology Corp
# [5] = read-out: % Enzyme Activity (relative to DMSO controls)
# [6] = 30 μM compound, duplicates Data 1/Data 2
# [7] = 30 μM compound, duplicates Data 1/Data 2, read-out: % Enzyme Activity (relative to DMSO controls)
# [8] = 30 μM, average ± SD, read-out: % Residual Activity at 30 μM
compound,measurement,setting,value
"O=C1C=CC2(C=C1)OCC(Cc1cn(-c3cccc(Cl)c3)nn1)C(=O)N2c1ccccc1 (centres unmarked) [2d, 3-((1-(3-Chlorophenyl)-1H-1,2,3-triazol-4-yl)methyl)-5-phenyl-1-oxa-5-azaspiro[5.5]undeca-7,10-diene-4,9-dione]",% Enzyme Activity (relative to DMSO controls),TRKA-TPM3,95.56%
same,remaining activity at 30 µM,TRKA-TPM3; [5],98.2%
same,remaining activity at 30 µM,AMPK(A2/B2/G3) [1],95.8%
same,% Enzyme Activity (relative to DMSO controls),AMPK(A2/B2/G3) [2],88.96%
same,% Enzyme Activity (relative to DMSO controls),CDK1/cyclin B; [6],58.64%
same,remaining activity at 30 µM,CDK1/cyclin B; [7],59.3%
same,remaining activity at 30 µM,CDK1/cyclin B; [8],59 ± 0.5%
same,% Enzyme Activity (relative to DMSO controls),ROCK1; [6],101.05%
same,remaining activity at 30 µM,ROCK1; [7],105%
same,remaining activity at 30 µM,ROCK1; [8],103 ± 3.1%
same,% Enzyme Activity (relative to DMSO controls),DNA-PK,101.60%
same,remaining activity at 30 µM,DNA-PK; [5],103%
same,remaining activity at 30 µM,AMPK(A1/B1/G1) [3],60.9%
same,% Enzyme Activity (relative to DMSO controls),AMPK(A1/B1/G1) [4],60.04%
same,% Enzyme Activity (relative to DMSO controls),TRKA; [6],115.47%
same,remaining activity at 30 µM,TRKA; [7],119%
same,remaining activity at 30 µM,TRKA; [8],117 ± 2.6%
same,% Enzyme Activity (relative to DMSO controls),PKN2/PRK2; [6],97.21%
same,remaining activity at 30 µM,PKN2/PRK2; [7],102%
same,remaining activity at 30 µM,PKN2/PRK2; [8],99.5 ± 3.3%
same,% Enzyme Activity (relative to DMSO controls),TRKC (G623E),114.78%
same,remaining activity at 30 µM,TRKC (G623E); [5],118%
same,% Enzyme Activity (relative to DMSO controls),Haspin; [6],70.31%
same,remaining activity at 30 µM,Haspin; [7],71.6%
same,remaining activity at 30 µM,Haspin; [8],70.9 ± 0.9%
same,% Enzyme Activity (relative to DMSO controls),TRKA (G667C),101.95%
same,remaining activity at 30 µM,TRKA (G667C); [5],103%
same,% Enzyme Activity (relative to DMSO controls),mTOR/FRAP1,96.09%
same,remaining activity at 30 µM,mTOR/FRAP1; [5],103%
same,COX-2 expression level,COX-2,the regulation of COX-2 showed concentration dependency
same,% Enzyme Activity (relative to DMSO controls),TRKC (L686M),106.77%
same,remaining activity at 30 µM,TRKC (L686M); [5],107%
O=C1C=CC2(C=C1)OCC(Cc1cc(C(F)(F)F)cc(C(F)(F)F)c1)C(=O)N2c1ccccc1 (racemic) [1c],% Residual Activity at 30 μM,DAPK2,120.1 ± 0.6%
same,% Residual Activity at 30 μM,JNK1,35.8 ± 0.3%
same,% Residual Activity at 30 μM,JNK2,58.3 ± 0.7%
